Test system: OP9 cells
Assay: Test of myricetin promoting osteocalcin secretion
Type: cell-based, Murine
Settings: 0.03125 mg/mL in differentiation culture medium, 7 days; blank group taken as 100%; ELISA of supernatant
Description: Experimental cell line: Murine bone marrow stromal cells (hereinafter referred to as OP9 cells) were used, and the OP9 cells were purchased from OP9 cell lines (ATCC CRL-2749™) from the American Type Culture Collection (ATCC®). Cell culture medium: It included […] (Minimum Essential Medium Alpha Medium, purchased from Gibco, product number: Cat. 12000-022), 20% of Fetal Bovine Serum (purchased from Gibco, Cat. 10437-028), and 1% of Penicillin-streptomycin (purchased from Gibco, Cat. 15240-062). Differentiation culture medium: It included 90% of DMEM (Dulbecco's modified Eagle's medium, purchased from Gibco, Cat. 12100-038) added with additional ingredients to make it include 10% of FBS (fetal bovine Serum, purchased from Gibco, 10438-026) and 1% of penicillin-streptomycin (purchased from Gibco, Cat. 15140122), 50 μM of ascorbic acid (purchased from Sigma), 10^−7 M of dexamethasome (purchased from Sigma), and 10 mM of β-glycerol (purchased from Sigma). ELISA Kit for Osteocalcin (OC): Brand: USCN; model: SEA471Mu. Flow cytometer: Purchased from BD Pharmingen Company, model: BDTM Accuri C6 Plus. […] The content of osteocalcin in the supernatant to be detected in each well was measured by the […] to promote osteocalcin secretion analysis. […]

## O=c1c(O)c(-c2cc(O)c(O)c(O)c2)oc2cc(O)cc(O)c12 [myricetin]
  relative osteocalcin secretion: 121.39%

From patent US20240261354A1, “METHODS FOR IMPROVING BONE QUALITY AND PROMOTING CARTILAGE DIFFERENTIATION BY CHRYSOPHYLLUM CAINITO EXTRACT AND MANUFACTURING METHOD THEREOF” (TCI CO., LTD., priority 2023, published 2024)
